In brackets after ≈: the same amount, converted by molar mass.
Legend:
[1] = test system: Pseudomonas aeruginosa No. 12; assay: M.I.C. for germ used in experimental infection; type: cell-based; settings: 18 h, Table 4, P. aeruginosa No. 12, read-out: M.I.C.
Method: (§1) After sterilisation at 120° C., the pH was 6.8.
(§2) The minimum inhibitory concentrations (M.I.C.) were determined by dilution of the test compounds in this mixture, the concentration ranging from 0.05 to 100 μg/cm^3 in a geometric progression with a factor of 2.
(§3) The inoculation of the dishes was carried out by means of a multiple inoculator with 10^-3 dilutions of 18 hour old broth cultures.
(§4) The dishes were placed in an oven at 37° C. and the readings were taken afer an incubation time of 18 hours. The M.I.C. was taken as the lowest concentration which inhibited a culture.

Strept. pyogenes A. 65 [2] = assay: M.I.C. for germ used in experimental infection; type: cell-based; settings: Streptococcus pyogenes, 18 h; Table 4; Strept. pyogenes A. 65; read-out: M.I.C.
Method: as §1, §2, §3, §4

Escherichia coli P 5101 [3] = assay: M.I.C. for germ used in experimental infection; type: cell-based; settings: P5101, 18 h, Table 4, E. coli P 5101, read-out: M.I.C.
Method: as §1, §2, §3, §4

Staph. aureus 50,774 [4] = assay: M.I.C. for germ used in experimental infection; type: cell-based; settings: Staphylococcus aureus, 18 h; Table 4; Staph. aureus 50,774; read-out: M.I.C.
Method: as §1, §2, §3, §4

Salm. typhi 0901 = assay: microbe, parasite or virus in culture; type: cell-based; settings: Salmonella enterica, 18 h; Table III; Salm. typhi 0901
Method: as §1, §2, §3, §4

Strepto D.M. 19 = assay: M.I.C. in vitro, nutrient agar dilution; type: cell-based; settings: 18 h; Table III; Strepto D.M. 19; read-out: M.I.C.
Method: as §1, §2, §3, §4

Providentia 0223 = assay: M.I.C. in vitro, nutrient agar dilution; type: cell-based; settings: 18 h; Table III; Providentia 0223; read-out: M.I.C.
Method: as §1, §2, §3, §4

Esch. coli 95 I.S.M. = assay: M.I.C. in vitro, nutrient agar dilution; type: cell-based; settings: Escherichia coli, 18 h; Table III; Esch. coli 95 I.S.M.; read-out: M.I.C.
Method: as §1, §2, §3, §4

Pr. mirabilis Nig = assay: M.I.C. in vitro, nutrient agar dilution; type: cell-based; settings: Proteus mirabilis, 18 h; Table III; Pr. mirabilis Nig; read-out: M.I.C.
Method: as §1, §2, §3, §4

Serratia = assay: M.I.C. in vitro, nutrient agar dilution; type: cell-based; settings: 18 h, Table III, read-out: M.I.C.
Method: as §1, §2, §3, §4

Pr. morganii A.236 = assay: M.I.C. in vitro, nutrient agar dilution; type: cell-based; settings: Morganella morganii, 18 h; Table III; Pr. morganii A. 236; read-out: M.I.C.
Method: as §1, §2, §3, §4

S. enteritidis Danysz = assay: M.I.C. in vitro, nutrient agar dilution; type: cell-based; settings: Salmonella enterica, 18 h; Table III; S. enteritidis Danysz; read-out: M.I.C.
Method: as §1, §2, §3, §4

Esch. coli 54.127 O.M.S. = assay: M.I.C. in vitro, nutrient agar dilution; type: cell-based; settings: Escherichia coli, 18 h; Table III; Esch. coli 54.127 O.M.S.; read-out: M.I.C.
Method: as §1, §2, §3, §4

Strepto A 561 = assay: M.I.C. in vitro, nutrient agar dilution; type: cell-based; settings: 18 h; Table III; Strepto A 561
Method: as §1, §2, §3, §4

B. subtilis = assay: M.I.C. in vitro, nutrient agar dilution; type: cell-based; settings: Bacillus subtilis, 18 h; Table III; B. Subtilis; read-out: M.I.C.
Method: as §1, §2, §3, §4

Arizona 6.211 = assay: M.I.C. in vitro, nutrient agar dilution; type: cell-based; settings: 18 h; Table III; Arizona 6.211; read-out: M.I.C.
Method: as §1, §2, §3, §4

Staph. 9.144 = assay: M.I.C. in vitro, nutrient agar dilution; type: cell-based; settings: 18 h; Table III; Staph. 9.144; read-out: M.I.C.
Method: as §1, §2, §3, §4

Bord. bronchis. 4.617 = assay: M.I.C. in vitro, nutrient agar dilution; type: cell-based; settings: 18 h; Table III; Bord. bronchis. 4.617; read-out: M.I.C.
Method: as §1, §2, §3, §4

S. oranienburg 1066 = assay: M.I.C. in vitro, nutrient agar dilution; type: cell-based; settings: Salmonella enterica, 18 h; Table III; S. oranienburg 1066; read-out: M.I.C.
Method: as §1, §2, §3, §4

Pr. vulgaris 12-53 = assay: M.I.C. in vitro, nutrient agar dilution; type: cell-based; settings: Proteus vulgaris, 1253, 18 h; Table III; Pr. vulgaris 12-53; read-out: M.I.C.
Method: as §1, §2, §3, §4

Klebs. pneum. 10.031 = assay: M.I.C. in vitro, nutrient agar dilution; type: cell-based; settings: 18 h; Table III; Klebs. pneum. 10.031; read-out: M.I.C.
Method: as §1, §2, §3, §4

Esch. coli 111 B4 = assay: M.I.C. in vitro, nutrient agar dilution; type: cell-based; settings: Escherichia coli, 18 h; Table III; Esch. coli 111 B4
Method: as §1, §2, §3, §4

Sh. sonnei I.P.S. = assay: M.I.C. in vitro, nutrient agar dilution; type: cell-based; settings: Shigella sonnei, 18 h
Method: as §1, §2, §3, §4

Ps. aeruginosa 72.345 = assay: M.I.C. in vitro, nutrient agar dilution; type: cell-based; settings: Pseudomonas aeruginosa, 18 h; Table III; Pd. aeruginosa 72.345; read-out: M.I.C.
Method: as §1, §2, §3, §4

Ps. aeruginosa A.22 = assay: M.I.C. in vitro, nutrient agar dilution; type: cell-based; settings: Pseudomonas aeruginosa, 18 h; Table III; Ps. aeruginosa A.22; read-out: M.I.C.
Method: as §1, §2, §3, §4

Staph. 209 P = assay: M.I.C. in vitro, nutrient agar dilution; type: cell-based; settings: 18 h; Table III; Staph. 209 P; read-out: M.I.C.
Method: as §1, §2, §3, §4

[5] = test system: Pseudomonas aeruginosa No. 12; assay: Systemic infection in mice; type: in vivo; settings: po, 168 h, mice, p.o. at infection and 6 hours later, P. aeruginosa No. 12, 7 days
Method: (§5) The activity of the compounds according to the invention against systemic infections in mice, caused by Staphylococcus 50,774, Streptococcus pyogenes A 65, Pseudomonas aeruginosa No. 12 and Escherichia coli P 5101, has been studied.
(§6) The infections were set up by intraperitoneal injection of a suspension of the bacterial culture corresponding to the germ studied. The products were administered orally at the time of injection, and 6 hours later. […] Aureus and for 7 days for the other germs.
(§7) Oxolinic acid was used as the reference substance.

Strept. pyogenes A. 65 [6] = assay: Systemic infection in mice; type: in vivo; settings: Streptococcus pyogenes, po, 168 h, mice, p.o. at infection and 6 hours later, Strept. pyogenes A. 65, 7 days
Method: as §5, §6, §7

Escherichia coli P 5101 [7] = assay: Systemic infection in mice; type: in vivo; settings: P5101, po, 168 h, mice, p.o. at infection and 6 hours later, E. coli P 5101, 7 days
Method: as §5, §6, §7

Staph. aureus 50,774 [8] = assay: Systemic infection in mice; type: in vivo; settings: Staphylococcus aureus, po, 336 h, mice, p.o. at infection and 6 hours later, Staph. aureus 50,774, 14 days
Method: as §5, §6, §7

## CCn1cc(C(=O)O)c(=O)c2cc(F)c(N3CCNCC3)cc21 [Example 22, 1-Ethyl-6-fluoro-4-oxo-7-piperazinyl-1,4-dihydro-quinoline-3-carboxylic acid]
[1]
  MIC: 0.78 µg/mL (≈ 2.44 µM)
Strept. pyogenes A. 65 [2]
  MIC: 1.56 µg/mL (≈ 4.89 µM)
Escherichia coli P 5101 [3]
  MIC: 0.1 µg/mL (≈ 0.313 µM)
Staph. aureus 50,774 [4]
  MIC: 0.78 µg/mL (≈ 2.44 µM)
Salm. typhi 0901
  MIC: 0.05 to 0.2 µg/mL (≈ 0.157 to 0.626 µM)
Strepto D.M. 19
  MIC: 1.6 to 3.1 µg/mL (≈ 5.01 to 9.71 µM)
Providentia 0223
  MIC: 0.8 to 1.6 µg/mL (≈ 2.51 to 5.01 µM)
Esch. coli 95 I.S.M.
  MIC: 0.2 µg/mL (≈ 0.626 µM)
Pr. mirabilis Nig
  MIC: 0.1 to 0.2 µg/mL (≈ 0.313 to 0.626 µM)
Serratia
  MIC: 1 to 6.2 µg/mL (≈ 3.13 to 19.4 µM)
Pr. morganii A.236
  MIC: 0.05 µg/mL (≈ 0.157 µM)
S. enteritidis Danysz
  MIC: 0.2 µg/mL (≈ 0.626 µM)
Esch. coli 54.127 O.M.S.
  MIC: 0.2 µg/mL (≈ 0.626 µM)
Strepto A 561
  MIC: 50 µg/mL (≈ 157 µM)
B. subtilis
  MIC: 0.2 µg/mL (≈ 0.626 µM)
Arizona 6.211
  MIC: 0.2 µg/mL (≈ 0.626 µM)
Staph. 9.144
  MIC: 0.2 to 0.4 µg/mL (≈ 0.626 to 1.25 µM)
Bord. bronchis. 4.617
  MIC: 6.25 to 12.5 µg/mL (≈ 19.6 to 39.1 µM)
S. oranienburg 1066
  MIC: 6.2 µg/mL (≈ 19.4 µM)
Pr. vulgaris 12-53
  MIC: 0.05 µg/mL (≈ 0.157 µM)
Klebs. pneum. 10.031
  MIC: 0.1 to 0.2 µg/mL (≈ 0.313 to 0.626 µM)
Esch. coli 111 B4
  MIC: 0.1 to 0.2 µg/mL (≈ 0.313 to 0.626 µM)
Sh. sonnei I.P.S.
  MIC: 0.01 to 0.02 µg/mL (≈ 0.0313 to 0.0626 µM)
Ps. aeruginosa 72.345
  MIC: 0.4 to 0.8 µg/mL (≈ 1.25 to 2.51 µM)
Ps. aeruginosa A.22
  MIC: 0.4 to 0.8 µg/mL (≈ 1.25 to 2.51 µM)
Staph. 209 P
  MIC: 0.2 to 0.4 µg/mL (≈ 0.626 to 1.25 µM)
[5]; read-out: ED50
  ED50: 17.7 mg/kg
[5]; read-out: ED90
  ED90: 25.9 mg/kg
Strept. pyogenes A. 65 [6]; read-out: ED50
  ED50: > 100 mg/kg
Strept. pyogenes A. 65 [6]; read-out: ED90
  ED90: > 100 mg/kg
Escherichia coli P 5101 [7]; read-out: ED50
  ED50: 4 mg/kg
Escherichia coli P 5101 [7]; read-out: ED90
  ED90: 10.4 mg/kg
Staph. aureus 50,774 [8]; read-out: ED50
  ED50: 20.6 mg/kg
Staph. aureus 50,774 [8]; read-out: ED90
  ED90: 44.1 mg/kg
